Measured values taken from US12279855B2, “Highly-timed resolved myocardial blood-oxygen-level-dependent magnetic resonance imaging” (Cedars-Sinai Medical Center, priority 2018, dated 2025).
“Also recorded” adds a separate entry of the source. Read-outs that look alike come from different tables or passages of the source.

Tests used:
[1] = extended vasodilatory state, cited from earlier work
[2] = system: Anesthetized dogs (intact; with chronic myocardial infarction), myocardium; assay: Beat-to-beat cardiac BOLD MRI at 3T before and after regadenoson injection; assay type: in vivo, dog
Protocol: FIG. 2A-FIG. 2F depicts in accordance with various embodiments of the invention, dynamics of BOLD response at rest and under the influence of regadenoson. BOLD response was relatively flat (fluctuated within +/−5%) throughout the measurement at rest (FIG. 2A), but peaks at 2-3 minutes after regadenoson injection to 10-15% and then plateaus after 4 minutes of injection (FIG. 2B). […] BOLD response was relatively flat in Remote and Affected territories at rest (FIG. 2D). However, under the influence of regadenoson (FIG. 2E), the BOLD response remained flat in Affected myocardium, while there was a delayed but rising BOLD response in Remote myocardium peaking at approximately 5 minutes was observed (FIG. 2E). The corresponding LGE image (with evidence of infarction) of the slice and where BOLD responses were measured are shown in FIG. 2F.
Methods. The proposed cardiac BOLD MRI approach was developed based on a LRT formalism (acquisition and reconstruction) that was previously used for ungated cardiac T1 mapping. It is composed of 3 parts: (i) adiabatic T2 preparation that is repeated at a fixed interval to ensure consistent T2 weighting; (ii) repeat acquisition of a set of central k-space lines with GRE readout every other TR to serve as respiratory and cardiac navigators for reconstruction; and (iii) interleaving of a set of golden-ratio radial GRE readout lines with the navigator lines serving as LRT training data. In brief, we modeled a high-dimensional cardiac image space (cardiac motion (Uc), respiratory motion (Ur), T1 recovery time (Ut), and time after excitation (Ut)) as a low-rank tensor that is partially separable. The complete tensors of all subspaces were recovered from the frequently sampled navigator signal using LRT completion. Subsequently cardiac and respiratory phased-resolved, beat-to-beat cardiac BOLD images were reconstructed. Anesthetized dogs (intact, n=2; and with chronic myocardial infarction, n=2) underwent continuous acquisition in a 3T MRI system (Siemens, Verio) that began 1-minute prior to regadenoson injection ([…]; duration of injection=30 sec) and ended 6 minutes after regadenoson injection. The data acquisition and reconstruction schemes are illustrated in FIG. 1. Sequence parameters were: scan time: 6 mins, delay between T2prep=800 ms; TE (T2prep time)=60 ms; GRE readout (TE/TR=1.4/3.3 ms, flip angle=12°, FOV=270×270 mm2, in-plane resolution: 1.7×1.7 mm2, 1 slice of thickness: 6 mm).
Results. […] LGE images show the region where the BOLD responses were measured. […] In animals with chronic MI (FIG. 2D, FIG. 2E and FIG. 2F), rest BOLD Response was also relatively stable in the infarcted and remote myocardium. However, following regadenoson injection, there was no response in the affected (infarcted) myocardium; but in the remote myocardium, a noticeably delayed hyperemic BOLD Response was observed (compared to intact animals), which peaked ˜5 minutes after regadenoson injection and plateaued to above 25%.

[3] = intact animal, healthy myocardium, regadenoson 2.5 mg/kg over 30 sec

Structure (SMILES)	terminal half-life ([1]; literature references)	terminal half-life ([1]; range printed in mixed units (min to hours), literature reference)	BOLD response in Affected (infarcted) myocardium ([2]; animal with chronic MI, affected territory, regadenoson 2.5 mg/kg over 30 sec)	plateau of BOLD Response in Remote myocardium ([2]; animal with chronic MI, remote territory, regadenoson 2.5 mg/kg over 30 sec)	plateau of normalized BOLD Response [2, 3]	time after injection at which BOLD response plateaus [2, 3]	time over which BOLD response rises / peaks after regadenoson injection [2, 3]	BOLD response at peak after regadenoson injection ([2]; intact animal, healthy myocardium, regadenoson injection 2.5 mg/kg over 30 sec, normalized BOLD response)
Nc1nc(N/N=C/C2CCCCC2)nc2c1ncn2[C@@H]1O[C@H](CO)[C@@H](O)[C@H]1O [binodenoson]	10 to 120 min							
OCCN(CCO)c1nc(N2CCCCC2)c2nc(N(CCO)CCO)nc(N3CCCCC3)c2n1 [dipyridamole]		40 to 600 min						
CNC(=O)c1cnn(-c2nc(N)c3ncn([C@@H]4O[C@H](CO)[C@@H](O)[C@H]4O)c3n2)c1 [regadenoson]	33 to 108 min		remained flat; also recorded: no response	above 25%	more than 10%	4 min	2 to 3 min	10-15%
